Experimental data reported in publication PMC8844822, “SARM1 is a multi-functional NAD(P)ase with prominent base exchange activity, all regulated bymultiple physiologically relevant NAD metabolites” (iScience, 2022).
Like-named read-outs stand apart in the source and are kept apart here.

Key:
hSARM1 full length [1] = molecular target: T1, hSARM1 full length (Homo sapiens, UniProt Q6SZW1); experiment: Base exchange reactions at neutral pH (HPLC); assay type: biochemical; conditions: hSARM1 full length, no trigger; NAD […] alone or + AcPyr 2 mM / Vacor 0.5 mM / Na 2 mM; pH 7.5
T1 construct: Human recombinant SARM1 full length proteins (wild-type and E642A mutant); made in house
T1 sequence (Q6SZW1 28-724): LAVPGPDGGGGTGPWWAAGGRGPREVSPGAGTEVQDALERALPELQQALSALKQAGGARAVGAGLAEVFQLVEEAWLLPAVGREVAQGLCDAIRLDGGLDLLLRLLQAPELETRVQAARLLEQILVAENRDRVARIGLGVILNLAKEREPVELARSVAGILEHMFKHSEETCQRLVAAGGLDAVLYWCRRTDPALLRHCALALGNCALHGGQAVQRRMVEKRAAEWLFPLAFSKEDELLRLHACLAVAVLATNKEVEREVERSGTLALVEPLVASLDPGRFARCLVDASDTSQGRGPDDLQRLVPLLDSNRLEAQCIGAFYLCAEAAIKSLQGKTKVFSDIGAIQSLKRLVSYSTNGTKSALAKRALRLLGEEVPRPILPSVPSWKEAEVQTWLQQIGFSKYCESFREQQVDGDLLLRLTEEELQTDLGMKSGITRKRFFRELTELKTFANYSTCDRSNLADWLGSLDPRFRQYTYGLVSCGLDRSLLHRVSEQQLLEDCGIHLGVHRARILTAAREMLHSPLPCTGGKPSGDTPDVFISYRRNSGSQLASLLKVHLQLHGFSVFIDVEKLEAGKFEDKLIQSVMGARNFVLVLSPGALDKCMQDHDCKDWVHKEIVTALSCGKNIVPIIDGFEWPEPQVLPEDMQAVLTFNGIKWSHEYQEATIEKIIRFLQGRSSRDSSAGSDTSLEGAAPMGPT
Method: (§1) Multiple time stops from individual assays as above were analyzed for linearity, then extents of hydrolysis (white bars), cyclization (red bars), or base exchange (black bars) were calculated from each corresponding product as shown in Figure 1B and STAR methods. […] See also Figures S3–S5, and Table S1
(§2) hSARM1 species were routinely assayed by the NAD/NADH-Glo^TM Assay (Promega) while both Aplysia cyclase and CD38 were assayed by fluorometry using ϵNAD ([Orsomando et al., 2000]). […] Other reagents used in addition to, or in place of those above are detailed in text or in figure legends, for example metal ions, free bases, dinucleotide analogues, mononucleotides, and ribosides. Assays were all carried out at 25°C except for temperature studies. Reactions were stopped by HClO4/K2CO3 and analysed by C18-HPLC as reported ([Mori et al., 2014]). Only the acid labile NADH and NADPH were treated with 1 N NaOH and neutralized using 1:1 vol of 1.73 M KH2CO3 while the highly hydrophobic metabolites vacor, VAD, VMN and VR, were analysed by a modified C18-HPLC method ([Buonvicino et al., 2018]). Reaction products were quantified from peak areas (see Figure 2A) based on coelution with standards (except for cyclic products from NAD analogues that were not available and were attributed based on UV-spectra and retention times as predicted). Rates were calculated as follows. Hydrolysis and cyclization were measured from product generation from the respective individual dinucleotide substrate used, e.g., free and cyclic ADP-ribosyl moieties from NAD (Figure 1B). A basal value for hydrolysis/cyclization was taken as sum of these latter two products. In addition to that value, base exchange or transglycosidation was calculated from the expected dinucleotide analog formed in the presence of the corresponding free base, e.g., AcPyrAD from AcPyr and NAD.

hCD38 [2] = molecular target: T2, hCD38 (Homo sapiens, UniProt P28907); experiment: Base exchange reactions at neutral pH (HPLC); assay type: biochemical; conditions: NAD […] alone or + AcPyr 2 mM / Vacor 0.5 mM / Na 2 mM
T2 construct: a soluble fragment Val43-Ile300 with 6x-His tag at C terminus; 6xHis (C); purchased R&D Systems
T2 sequence (P28907 43-300): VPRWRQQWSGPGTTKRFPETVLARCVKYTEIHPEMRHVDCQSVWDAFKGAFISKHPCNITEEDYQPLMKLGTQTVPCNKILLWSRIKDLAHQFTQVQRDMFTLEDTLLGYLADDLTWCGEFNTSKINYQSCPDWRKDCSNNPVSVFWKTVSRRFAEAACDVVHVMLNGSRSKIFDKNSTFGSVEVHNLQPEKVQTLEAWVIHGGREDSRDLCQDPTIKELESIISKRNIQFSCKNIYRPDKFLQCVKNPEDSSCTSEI
Method: as §1, §2

hSARM1 SAM-TIR [3] = molecular target: T3, hSARM1 SAM-TIR (Homo sapiens, UniProt Q6SZW1); assay type: biochemical
T3 construct: made in house
T3 sequence (Q6SZW1 409-724): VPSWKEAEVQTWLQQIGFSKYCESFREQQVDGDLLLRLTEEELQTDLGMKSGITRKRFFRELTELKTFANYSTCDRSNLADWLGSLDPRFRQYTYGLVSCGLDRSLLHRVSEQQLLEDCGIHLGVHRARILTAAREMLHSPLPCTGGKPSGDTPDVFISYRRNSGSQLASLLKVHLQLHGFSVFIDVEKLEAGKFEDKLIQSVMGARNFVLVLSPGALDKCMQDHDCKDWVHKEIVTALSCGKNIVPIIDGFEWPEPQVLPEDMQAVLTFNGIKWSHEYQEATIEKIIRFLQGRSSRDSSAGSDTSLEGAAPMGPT
Method: as §2, with “In addition to that value, base exchange or transglycosidation was calculated from the expected dinucleotide analog formed in the presence of the corresponding free base, e.g., AcPyrAD from AcPyr and NAD.” left out

[4] = molecular target: T4, Aplysia californica ADP ribosyl cyclase (Aplysia californica, UniProt P29241); experiment: Base exchange reactions at neutral pH (HPLC); assay type: biochemical; design: purchased Merck A8950; conditions: NAD […] alone or + AcPyr 2 mM / Vacor 0.5 mM / Na 2 mM
T4 sequence (P29241 25-282): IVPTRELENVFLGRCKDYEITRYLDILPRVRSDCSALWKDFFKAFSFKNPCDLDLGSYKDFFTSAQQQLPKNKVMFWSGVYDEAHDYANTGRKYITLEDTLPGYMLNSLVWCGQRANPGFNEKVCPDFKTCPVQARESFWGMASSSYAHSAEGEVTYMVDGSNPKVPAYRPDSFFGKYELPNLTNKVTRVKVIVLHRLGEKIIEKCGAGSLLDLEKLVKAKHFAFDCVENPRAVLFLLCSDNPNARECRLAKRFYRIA
Method: as §1
(§3) Rates were calculated as follows.

hSARM1 SAM-TIR [5] = molecular target: T3, hSARM1 SAM-TIR; experiment: Base exchange reactions at neutral pH (HPLC); assay type: biochemical; conditions: NAD […] alone or + AcPyr 2 mM / Vacor 0.5 mM / Na 2 mM
Method: as §1, §3

hSARM1 full length [6] = molecular target: T1, hSARM1 full length; experiment: NAD(P)ase activity by HPLC (kinetics, substrates, metal ions); assay type: biochemical; conditions: for basal rate: substrate alone […]
Method: as §2
(§4) The kinetic parameters were calculated from initial rates obtained from replicates via best-fitting analysis using the following Equation 1 for CD38 and Aplysia cyclase, or Equation 2 for hSARM1 SAM-TIR, or Equation 3 for hSARM1 full length(Equation 1) V =Vmax[S]/Km+[S] […] In that case, the resulting single curves were fit to Equation 3 as above to evaluate any competition between NMN and the substrate used (see Table 1).

hCD38 [7] = molecular target: T2, hCD38; experiment: as above; assay type: biochemical
Method: as §2, §4

[8] = molecular target: T4, Aplysia californica ADP ribosyl cyclase
Method: as §2, §4

NC(=O)c1ccc[n+]([C@@H]2O[C@H](COP(=O)([O-])OP(=O)(O)OC[C@H]3O[C@@H](n4cnc5c(N)ncnc54)[C@H](O)[C@@H]3O)[C@@H](O)[C@H]2O)c1 [NAD, nicotinamide adenine dinucleotide]
rate (hSARM1 full length [1]): 21.8 ±0.30 mU/mg | rate (hCD38 [2]): 7798 ±1624 mU/mg | Kis (inhibition, catalytic site) (hSARM1 SAM-TIR [3]): >8000 µM | rate [4]: 14712 ±399 mU/mg | rate (hSARM1 SAM-TIR [5]): 342.4 ±56.3 mU/mg | Ki (hSARM1 full length [6]; SARM1, read-out: Kia): ~300 µM | cyclization, share of total substrate consumption (hSARM1 full length [6]; hSARM1, no free pyridines): ~10% | hydrolysis, share of substrate consumption (hSARM1 full length [6]; hSARM1, no free pyridines): ~90% | specific activity, basal NADase (hydrolysis or cyclization combined) (hSARM1 full length [6]; hSARM1, saturating NAD): ~0.02 U/mg | basal rate (hSARM1 full length [6]; hSARM1 full length 14.6 µg/ml, 30 min, 25 °C (Figure S2)): 15.8 mU/mg | Kis (catalytic site) (hSARM1 full length [6]; hSARM1 full length +NMN 5μM, n=1): >8000 µM | Ki (hSARM1 full length [6]; hSARM1 full length +NMN 5μM, n=1, read-out: Kia (allosteric site)): 385 µM | Kis (catalytic site) (hSARM1 full length [6]; hSARM1 full length +NMN 10μM, n=1): >8000 µM | Ki (hSARM1 full length [6]; hSARM1 full length +NMN 10μM, n=1, read-out: Kia (allosteric site)): 415 µM | Kis (catalytic site) (hSARM1 full length [6]; hSARM1 full length +NMN 20μM, n=1): >8000 µM | Ki (hSARM1 full length [6]; hSARM1 full length +NMN 20μM, n=1, read-out: Kia (allosteric site)): 787 µM | Kis (catalytic site) (hSARM1 full length [6]; hSARM1 full length +NMN 50μM, n=1): >8000 µM | Ki (hSARM1 full length [6]; hSARM1 full length +NMN 50μM, n=1, read-out: Kia (allosteric site)): 1200 µM | basal rate (hSARM1 full length [6]; hSARM1 full length WT 5.4 µg/ml, 6 hours, 25 °C (Figure S3)): 26.4 mU/mg | Kis (inhibition, catalytic site on TIR domain) (hSARM1 full length [6]; hSARM1 full length, no NMN): >8000 µM | Ki (hSARM1 full length [6]; hSARM1 full length, no NMN, read-out: Kia (inhibition, allosteric site on ARM domain)): 324 ± 24.6 µM | NAD concentration at maximum NADase activity (hSARM1 full length [6]; hSARM1 full length, activity falls to almost zero at 4 mM): 0.25 mM | hydrolysis, share of NAD consumption (hCD38 [7]; hCD38): > 98% | specific activity, basal NADase (hydrolysis or cyclization combined) (hCD38 [7]; hCD38, saturating NAD): ~7 U/mg | cyclization, share of NAD consumption [8]: > 98% | specific activity, basal NADase (hydrolysis or cyclization combined) ([8]; saturating NAD): ~50 U/mg
